Data published in patent publication US10364238B2, “N-((het) arylmethyl)-heteroaryl-carboxamides compounds as plasma kallikrein inhibitors” (KALVISTA PHARMACEUTICALS LIMITED, priority 2014, dated 2019).

Experiments:
Human plasma kallikrein = Human plasma kallikrein (Homo sapiens (Human), UniProt P03952); experiment: Determination of the IC50 for plasma kallikrein; assay type: biochemical; conditions: 25° C., fluorogenic substrate H-DPro-Phe-Arg-AFC; read-out: IC50 (human PKaI)
Procedure: Determination of the IC50 for Plasma Kallikrein
(§1) Human plasma kallikrein (Protogen) was incubated at 25° C. with the fluorogenic substrate H-DPro-Phe-Arg-AFC and various concentrations of the test compound. Residual enzyme activity (initial rate of reaction) was determined by measuring the change in […] at 410 nm and the IC50 value for the test compound was determined.

Human KLK1 = Human KLK1 (Homo sapiens (Human), UniProt P06870); experiment: Determination of the IC50 for KLK1; assay type: biochemical; conditions: 25° C., fluorogenic substrate H-DVal-Leu-Arg-AFC
Human KLK1, sequence (P06870 25-262): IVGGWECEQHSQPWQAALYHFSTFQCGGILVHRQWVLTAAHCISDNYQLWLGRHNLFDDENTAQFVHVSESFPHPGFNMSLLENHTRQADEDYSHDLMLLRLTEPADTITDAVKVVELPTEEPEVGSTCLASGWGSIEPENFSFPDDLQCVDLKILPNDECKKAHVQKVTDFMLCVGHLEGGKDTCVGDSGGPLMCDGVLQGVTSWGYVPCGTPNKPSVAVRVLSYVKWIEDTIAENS
Procedure: Determination of the IC50 for KLK1
as §1, with “KLK1 (Callbiochem)” for “plasma kallikrein (Protogen)”, “H-DVal-Leu-Arg-AFC” for “H-DPro-Phe-Arg-AFC”

Human plasma kallikrein, sequence (P03952 391-638): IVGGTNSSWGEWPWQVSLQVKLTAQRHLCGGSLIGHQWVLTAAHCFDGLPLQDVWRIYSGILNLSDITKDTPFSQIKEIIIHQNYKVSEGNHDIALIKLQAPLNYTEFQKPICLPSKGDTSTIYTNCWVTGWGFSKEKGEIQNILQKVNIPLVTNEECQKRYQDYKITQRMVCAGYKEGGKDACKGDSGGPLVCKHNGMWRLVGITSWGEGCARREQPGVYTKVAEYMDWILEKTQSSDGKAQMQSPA
Human plasma kallikrein, sequence (P03952 20-390 partner): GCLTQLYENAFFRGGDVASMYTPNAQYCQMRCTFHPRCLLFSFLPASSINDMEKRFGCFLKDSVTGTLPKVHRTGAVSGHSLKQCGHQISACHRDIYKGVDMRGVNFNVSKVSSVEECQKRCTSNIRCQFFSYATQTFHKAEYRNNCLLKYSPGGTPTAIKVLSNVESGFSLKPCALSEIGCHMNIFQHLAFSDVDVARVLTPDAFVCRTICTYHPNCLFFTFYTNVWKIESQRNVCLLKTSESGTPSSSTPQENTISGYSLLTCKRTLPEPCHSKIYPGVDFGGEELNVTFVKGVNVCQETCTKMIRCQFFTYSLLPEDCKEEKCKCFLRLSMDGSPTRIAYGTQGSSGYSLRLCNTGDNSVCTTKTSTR

Row | Compound | IC50 (Human plasma kallikrein) | IC50 (Human KLK1)
1 | Cc1cnn(Cc2ccc(Cn3cc(C(=O)NCc4c(F)cc(Cl)cc4F)c(C(F)(F)F)n3)cc2)c1 [Example 16, N-[(4-chloro-2,6-difluorophenyl)methyl]-1-({4-[(4-methylpyrazol-1-yl)methyl]phenyl}methyl)-3-(trifluoromethyl)pyrazole-4-carboxamide] | 263 nM | > 10000 nM
2 | Cc1cnn(Cc2ccc(Cn3cc(C(=O)NCc4ccc(Cl)cc4F)c(C(F)(F)F)n3)cc2)c1 [Example 17, N-[(4-chloro-2-fluorophenyl)methyl]-1-({4-[(4-methylpyrazol-1-yl)methyl]phenyl}methyl)-3-(trifluoromethyl)pyrazole-4-carboxamide] | 865 nM | > 10000 nM
3 | Cc1cnn(Cc2ccc(Cn3cc(C(=O)NCc4c(F)ccc(Cl)c4F)c(C(F)(F)F)n3)cc2)c1 [Example 18, N-[(3-chloro-2,6-difluorophenyl)methyl]-1-({4-[(4-methylpyrazol-1-yl)methyl]phenyl}methyl)-3-(trifluoromethyl)pyrazole-4-carboxamide] | 373 nM | > 10000 nM
4 | Cc1cnn(Cc2ccc(Cn3cc(C(=O)NCc4cccc(Cl)c4F)c(C(F)(F)F)n3)cc2)c1 [Example 19, N-[(3-chloro-2-fluorophenyl)methyl]-1-({4-[(4-methylpyrazol-1-yl)methyl]phenyl}methyl)-3-(trifluoromethyl)pyrazole-4-carboxamide] | 1130 nM | > 10000 nM
5 | Cc1cnn(Cc2ccc(Cn3cc(C(=O)NCc4cc(Cl)ccc4F)c(C(F)(F)F)n3)cc2)c1 [Example 20, N-[(5-chloro-2-fluorophenyl)methyl]-1-({4-[(4-methylpyrazol-1-yl)methyl]phenyl}methyl)-3-(trifluoromethyl)pyrazole-4-carboxamide] | 740 nM | > 10000 nM
6 | Cc1cnn(Cc2ccc(Cn3cc(C(=O)NCc4c(C(F)(F)F)ccc(Cl)c4F)c(C(F)(F)F)n3)cc2)c1 [Example 21, N-{[3-chloro-2-fluoro-6-(trifluoromethyl)phenyl]methyl}-1-({4-[(4-methylpyrazol-1-yl)methyl]phenyl}methyl)-3-(trifluoromethyl)pyrazole-4-carboxamide] | 257 nM | > 10000 nM
7 | Cc1cnn(Cc2ccc(Cn3cc(C(=O)NCc4c(Cl)cccc4Cl)c(C(F)(F)F)n3)cc2)c1 [Example 22, N-[(2,6-dichlorophenyl)methyl]-1-({4-[(4-methylpyrazol-1-yl)methyl]phenyl}methyl)-3-(trifluoromethyl)pyrazole-4-carboxamide] | 1350 nM | > 10000 nM
8 | Cc1cnn(Cc2ccc(Cn3cc(C(=O)NCc4cc(Cl)ccc4C(F)(F)F)c(C(F)(F)F)n3)cc2)c1 [Example 23, N-{[5-chloro-2-(trifluoromethyl)phenyl]methyl}-1-({4-[(4-methylpyrazol-1-yl)methyl]phenyl}methyl)-3-(trifluoromethyl)pyrazole-4-carboxamide] | 1060 nM | > 10000 nM
9 | Cc1ccc(CNC(=O)c2cn(Cc3ccc(Cn4cc(C)cn4)cc3)nc2C(F)(F)F)c(C)c1 [Example 24, N-[(2,4-dimethylphenyl)methyl]-1-({4-[(4-methylpyrazol-1-yl)methyl]phenyl}methyl)-3-(trifluoromethyl)pyrazole-4-carboxamide] | 717 nM | > 10000 nM
10 | Cc1cnn(Cc2ccc(Cn3cc(C(=O)NCc4c(C)cccc4C)c(C(F)(F)F)n3)cc2)c1 [Example 25, N-[(2,6-dimethylphenyl)methyl]-1-({4-[(4-methylpyrazol-1-yl)methyl]phenyl}methyl)-3-(trifluoromethyl)pyrazole-4-carboxamide] | 1840 nM | > 10000 nM
11 | Cc1cc(C)c(CNC(=O)c2cn(Cc3ccc(Cn4cc(C)cn4)cc3)nc2C(F)(F)F)c(C)c1 [Example 26, 1-({4-[(4-methylpyrazol-1-yl)methyl]phenyl}methyl)-3-(trifluoromethyl)-N-[(2,4,6-trimethylphenyl)methyl]pyrazole-4-carboxamide] | 1340 nM | > 10000 nM
12 | Cc1cnn(Cc2ccc(Cn3cc(C(=O)NCc4cccc(F)c4C)c(C(F)(F)F)n3)cc2)c1 [Example 27, N-[(3-fluoro-2-methylphenyl)methyl]-1-({4-[(4-methylpyrazol-1-yl)methyl]phenyl}methyl)-3-(trifluoromethyl)pyrazole-4-carboxamide] | > 10000 nM | > 10000 nM
13 | Cc1ccc(CNC(=O)c2cn(Cc3ccc(Cn4cc(C)cn4)cc3)nc2C(F)(F)F)c(F)c1 [Example 28, N-[(2-fluoro-4-methylphenyl)methyl]-1-({4-[(4-methylpyrazol-1-yl)methyl]phenyl}methyl)-3-(trifluoromethyl)pyrazole-4-carboxamide] | 280 nM | > 10000 nM
14 | Cc1cnn(Cc2ccc(Cn3cc(C(=O)NCc4ncccc4F)c(C(F)(F)F)n3)cc2)c1 [Example 29, N-[(3-fluoropyridin-2-yl)methyl]-1-({4-[(4-methylpyrazol-1-yl)methyl]phenyl}methyl)-3-(trifluoromethyl)pyrazole-4-carboxamide] | 2190 nM | > 10000 nM
15 | Cc1cnn(Cc2ccc(Cn3cc(C(=O)NCc4cc(Cl)ccn4)c(C(F)(F)F)n3)cc2)c1 [Example 30, N-[(4-chloropyridin-2-yl)methyl]-1-({4-[(4-methylpyrazol-1-yl)methyl]phenyl}methyl)-3-(trifluoromethyl)pyrazole-4-carboxamide] | 915 nM | > 10000 nM
16 | COCc1nn(Cc2ccc(Cn3ccccc3=O)cc2)cc1C(=O)NCc1cnccc1C(F)(F)F [Example 31, 3-(methoxymethyl)-1-({4-[(2-oxopyridin-1-yl)methyl]phenyl}methyl)-N-{[4-(trifluoromethyl)pyridin-3-yl]methyl}pyrazole-4-carboxamide] | 392 nM | > 10000 nM
17 | COCc1nn(Cc2ccc(Cn3ccccc3=O)cc2)cc1C(=O)NCc1ccc(C)nc1 [Example 32, 3-(methoxymethyl)-N-[(6-methylpyridin-3-yl)methyl]-1-({4-[(2-oxopyridin-1-yl)methyl]phenyl}methyl)pyrazole-4-carboxamide] | 7870 nM | > 10000 nM
18 | COCc1nn(Cc2ccc(Cn3ccccc3=O)cc2)cc1C(=O)NCc1csc2ccc(Cl)cc12 [Example 45, N-[(5-chloro-1-benzothiophen-3-yl)methyl]-3-(methoxymethyl)-1-({4-[(2-oxopyridin-1-yl)methyl]phenyl}methyl)pyrazole-4-carboxamide] | 144 nM | > 10000 nM
19 | COCc1nn(Cc2ccc(N3CCCC3)nc2)cc1C(=O)NCc1csc2ccc(Cl)cc12 [Example 46, N-[(5-chloro-1-benzothiophen-3-yl)methyl]-3-(methoxymethyl)-1-{[6-(pyrrolidin-1-yl)pyridin-3-yl]methyl}pyrazole-4-carboxamide] | 2400 nM | > 10000 nM
20 | COCc1nn(Cc2ccc(Cn3cc(C)cn3)cc2)cc1C(=O)NCc1csc2ccc(Cl)cc12 [Example 47, N-[(5-chloro-1-benzothiophen-3-yl)methyl]-3-(methoxymethyl)-1-({4-[(4-methylpyrazol-1-yl)methyl]phenyl}methyl)pyrazole-4-carboxamide] | 753 nM | > 10000 nM
